Like-named read-outs stand apart in the source and are kept apart here.
Assays:
[1] = tested on: HCT-8 host cells (Hs18S)
[2] = in vitro
[3] = tested on: Cryptosporidium parvum; experiment: qRT-PCR assay of the growth of C. parvum in vitro in HCT-8 host cells (primary and secondary screening, EC50); assay type: cell-based; details: Cryptosporidium parvum, HCT-8; for inhibition at 10 µM: primary screening at 10 uM, read-out: Inhibition (%); for inhibition at 3.3 µM: secondary screening at 3.3 uM, read-out: % Inhibition (3.3 uM)
[4] = primary screening at 10 uM, treated vs control

| Compound | Hs18S ΔCT ([1]; human, 41 h, 10 μM) | cytotoxicity at 41 h, 10 µM ([2]; human) | inhibition at 10 µM [3] | Hs18S ΔCT [1, 4] | cytotoxicity at 10 µM [2] | cytotoxicity at 41 h, 10 µM [2] | inhibition at 3.3 µM [3] |
| --- | --- | --- | --- | --- | --- | --- | --- |
| NCCCNCCCCNCCCN [SPERMINE] | -0.43 | -35.1% | -7.42% |  |  |  |  |
| COc1ccc(-c2cc(=O)c3c(O)cc(OC)cc3o2)cc1 [APIGENIN DIMETHYL ETHER] |  |  | -37.8% | 0.17 | 11.3% |  |  |
| C[C@]12CCC(=O)C=C1CC[C@@H]1[C@@H]2[C@@H](O)C[C@@]2(C)[C@H]1CC[C@]2(O)C(=O)CO [HYDROCORTISONE] | -0.47 | -38.1% | 21.1% |  |  |  |  |
| CC(C)CCC[C@@H](C)[C@H]1CC[C@H]2[C@@H]3CC(=O)[C@H]4C[C@@H](O)CC[C@]4(C)[C@H]3CC[C@]12C [5alpha-CHOLESTAN-3beta-OL-6-ONE] |  |  | -27.8% | 0.53 |  | 30.6% |  |
| C[C@]12CC[C@@H]3c4ccc(O)cc4CC[C@H]3[C@@H]1C[C@@H](O)[C@@H]2O [ESTRIOL] | -0.12 | -8.4% | 14.4% |  |  |  |  |
| C=C(C)[C@@H]1[C@H]2OC(=O)[C@@H]1[C@]1(O)C[C@H]3O[C@]34C(=O)O[C@H]2[C@]14C [PICROTOXININ] |  |  | 23.1% | -0.81 | -75.3% |  |  |
| C=C(C)[C@H]1COc2cc3oc(=O)ccc3cc2O1 [OBLIQUIN] |  |  | 1.63% | -0.33 | -25.7% |  |  |
| C[C@]12CC[C@@H]3c4ccc(O)cc4CC[C@H]3[C@@H]1CC[C@@H]2O [ESTRADIOL] | -0.19 | -13.8% | 22% |  |  |  |  |
| CCCCCCCCCCCCCCCC(=O)NCCO [PALMIDROL] | 0.05 | 3.5% | -7.35% |  |  |  |  |
| O=c1cc(-c2ccccc2)oc2ccc(O)cc12 [6-HYDROXYFLAVONE] | 0.08 | 5.6% | 40% |  |  |  |  |
| CC(=O)[C@H]1CC[C@H]2[C@@H]3CC[C@H]4C[C@H](O)CC[C@]4(C)[C@H]3CC[C@]12C [ALLOPREGNANOLONE] |  |  | -52.5% | 0.02 | 1.3% |  |  |
| O=C(CCc1ccc(O)cc1)c1c(O)cc(O)cc1O[C@@H]1O[C@H](CO)[C@@H](O)[C@H](O)[C@H]1O [PHLORIDZIN] | -0.08 | -5.8% | 28.9% |  |  |  |  |
| CC(C)c1ccc2c(c1O)CC[C@H]1C3=C(CC[C@]21C)C(=O)OC3 [TRIPTOPHENOLIDE] | -0.29 | -22.1% | -24.5% |  |  |  |  |
| CNC(=O)Oc1ccc2c(c1)[C@]1(C)CCN(C)[C@@H]1N2C [PHYSOSTIGMINE SALICYLATE] |  |  | -4.89% | -0.12 | -8.6% |  |  |
| Nc1ncnc2c1ncn2[C@@H]1O[C@H](CO)[C@@H](O)[C@H]1O [ADENOSINE] | 0.02 | 1.5% | -13.4% |  |  |  |  |
| CO[C@H]1[C@H](O)[C@@H](O)[C@H](O)[C@H](O)[C@H]1O [QUEBRACHITOL] | -0.16 | -11.4% | -39% |  |  |  |  |
| CC1=C(/C=C/C(C)=C/C=C/C(C)=C/C=C/C=C(C)/C=C/C=C(C)/C=C/C2=C(C)C(=O)[C@@H](O)CC2(C)C)C(C)(C)C[C@H](O)C1=O [ASTAXANTHIN] | -0.43 | -34.8% | 45.1% |  |  |  |  |
| C[C@H]1[C@H](C)CC[C@]2(C(=O)O)CC[C@]3(C)C(=CC[C@@H]4[C@@]5(C)C[C@@H](O)[C@H](O)[C@@](C)(CO)[C@@H]5CC[C@]43C)[C@H]12 [ASIATIC ACID] | -0.29 | -22.7% | 25.1% |  |  |  |  |

| Compound | Hs18S ΔCT ([1]; human, 41 h, 10 μM) | cytotoxicity at 41 h, 10 µM ([2]; human) | inhibition at 10 µM [3] | Hs18S ΔCT [1, 4] | cytotoxicity at 10 µM [2] | cytotoxicity at 41 h, 10 µM [2] | inhibition at 3.3 µM [3] |
| --- | --- | --- | --- | --- | --- | --- | --- |
| C[C@@H]1O[C@@H](Oc2c(-c3ccc(O)c(O)c3)oc3cc(O)cc(O)c3c2=O)[C@H](O)[C@H](O)[C@H]1O [QUERCITRIN] |  |  | 3.89% | -0.65 | -57.2% |  |  |
| OC[C@@H](O)[C@@H](O[C@@H]1O[C@H](CO)[C@@H](O)[C@H](O)[C@H]1O)[C@H](O)[C@@H](O)CO [GLUCITOL-4-GUCOPYANOSIDE] | -0.19 | -14.4% | 4.89% |  |  |  |  |
| COc1ccc2c(c1)O[C@H]1c3ccc(OC)cc3OC[C@@H]21 [HOMOPTEROCARPIN] |  |  | 5.57% | -0.01 | -0.7% |  |  |
| COC(=O)CC[C@@H](C)[C@H]1CC[C@H]2[C@@H]3[C@H](O)C[C@@H]4C[C@H](O)CC[C@]4(C)[C@H]3C[C@H](O)[C@]12C [CHOLIC ACID, METHYL ESTER] | -0.11 | -7.7% | 42.1% |  |  |  |  |
| C[C@]12CC[C@@H]3c4ccc(O)cc4CC[C@H]3[C@@H]1CCC2=O [ESTRONE] | -0.24 | -18.4% | 28.1% |  |  |  |  |
| CCCCCCCCCCCC1=C(O)C(=O)C=C(O)C1=O [EMBELIN] |  |  | -5.38% | 0.13 | 8.8% |  |  |
| O=Cc1ccccc1O[C@@H]1O[C@H](CO)[C@@H](O)[C@H](O)[C@H]1O [HELICIN] | 0.07 |  | 18.6% |  | 4.7% |  |  |
| COC(=O)/C=C/C(C)=C\C=C\C(C)=C\C=C\C=C(C)\C=C\C=C(C)\C=C\C(=O)O [BIXIN] | 0.60 | 34.2% | 49.3% |  |  |  |  |
| C=C1CC[C@H](O)C/C1=C/C=C1\CCC[C@]2(C)[C@@H]([C@H](C)CCCC(C)C)CC[C@@H]12 [CHOLECALCIFEROL] |  |  | 0.08% | -0.21 | -15.8% |  |  |
| CC12CCCC(O)(C1)C1CC(C)(C)C1CC2 (stereo not drawn) [beta-CARYOPHYLLENE ALCOHOL] | 0.03 | 1.9% | 24.2% |  |  |  |  |
| O=C1O[C@H]([C@@H](O)CO)C(O)=C1O [ASCORBIC ACID] | 0.44 | 26.2% | 12% |  |  |  |  |
| CC/C=C\C/C=C\C/C=C\C/C=C\C/C=C\C/C=C\CCC(=O)O [DOCONEXENT] | -0.06 | -4% | -24.5% |  |  |  |  |
| N[C@@H](CCC(=O)N[C@@H](CS)C(=O)NCC(=O)O)C(=O)O [GLUTATHIONE] | -0.40 | -32% | 68.1% |  |  |  | -20% |
| CCOC(=O)c1c(C)cc(O)cc1O [ORSELLINIC ACID, ETHYL ESTER] | -0.12 | -8.3% | 23.7% |  |  |  |  |
| COC(=O)c1cc(O)c(=O)c2c(O)c(O)ccc2c1 [METHYL 7-DESHYDROXYPYROGALLIN-4-CARBOXYLATE] | 0.16 | 10.5% | -4.08% |  |  |  |  |
| O=C1C=C2C(=CCOC2O)O1 (centres unmarked) [PATULIN] |  |  | 91.4% | 0.81 | 43% |  | 10% |
| C=CC1=C(C)c2cc3[nH]c(cc4nc(cc5[nH]c(cc1n2)c(C)c5CCC(=O)O)C(CCC(=O)O)=C4C)c(C)c3C=C [PROTOPORPHYRIN IX] | 0.00 | -0.1% | -20.6% |  |  |  |  |
| CN1CC(=O)NC1=N [CREATININE] | 0.00 | 0.2% | 20.5% |  |  |  |  |
